Assay [1] deals with Cannabinoid receptor 2 (Mus musculus, UniProt P47936). The assay can be described thus: Binding affinity for Cannabinoid receptor 2 by the ability to displace radiolabeled CP-55940 from mouse spleen synaptosomes. It is filed as subcellular.
Assay [2] deals with Cannabinoid receptor 1 (Rattus norvegicus, UniProt P20272). The assay can be described thus: Binding affinity for Cannabinoid receptor 1 by the ability to displace radiolabeled CP-55940 from purified rat forebrain synaptosomes. It is filed as subcellular, Brain.
Sequence of Cannabinoid receptor 1 (P20272 whole entry): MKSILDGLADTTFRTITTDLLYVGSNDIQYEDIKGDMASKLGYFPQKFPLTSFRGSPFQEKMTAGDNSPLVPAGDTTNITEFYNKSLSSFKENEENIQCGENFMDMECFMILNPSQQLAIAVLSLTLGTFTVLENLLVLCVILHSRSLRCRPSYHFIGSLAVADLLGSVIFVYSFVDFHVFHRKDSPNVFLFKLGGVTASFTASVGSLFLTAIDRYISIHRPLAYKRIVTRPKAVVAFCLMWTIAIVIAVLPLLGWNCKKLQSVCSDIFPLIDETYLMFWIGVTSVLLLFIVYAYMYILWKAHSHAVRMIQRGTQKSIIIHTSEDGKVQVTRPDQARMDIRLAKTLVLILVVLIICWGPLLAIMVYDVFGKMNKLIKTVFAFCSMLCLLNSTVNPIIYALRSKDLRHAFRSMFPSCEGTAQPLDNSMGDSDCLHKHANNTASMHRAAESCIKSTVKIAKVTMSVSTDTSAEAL

Sequence of Cannabinoid receptor 2 (P47936 whole entry): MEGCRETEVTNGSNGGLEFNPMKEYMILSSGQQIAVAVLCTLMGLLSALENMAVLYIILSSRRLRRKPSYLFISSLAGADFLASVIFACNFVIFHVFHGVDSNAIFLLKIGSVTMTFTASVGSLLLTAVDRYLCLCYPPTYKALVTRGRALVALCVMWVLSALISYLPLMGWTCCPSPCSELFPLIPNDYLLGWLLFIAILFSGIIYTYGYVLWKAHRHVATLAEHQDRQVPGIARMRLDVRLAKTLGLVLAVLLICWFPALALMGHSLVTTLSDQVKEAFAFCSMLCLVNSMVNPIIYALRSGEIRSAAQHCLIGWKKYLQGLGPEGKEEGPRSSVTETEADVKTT

For orientation: Ki means a measure of affinity in units of concentration, obtained from inhibition or displacement. A high value points to a looser hold on the target. In the case of `CCCCCCC1(c2cc(O)c3c(c2)OC(C)(C)[C@@H]2CC=C(C)C[C@@H]32)CC1(Br)Br` (some centres not stated), the figures for the inhibitory constant (Ki) in assay [1] and in assay [2] were 1 nM and 0.71 nM, respectively.
The like results for `C=C(C)C1CCC(C)=CC1c1c(O)cc(C2(CCCCCC)CC2)cc1O` (configuration not stated) were, in that order, 99 nM and 59 nM.
In the case of `CCCCCCC1(c2cc(O)c3c(c2)OC(C)(C)[C@@H]2CC=C(C)C[C@@H]32)CC1(Cl)Cl` (some centres not stated), the Ki was 0.29 nM in assay [1] and 1.27 nM in assay [2].
As for `C=C(C)C1CCC(C)=CC1c1c(O)cc(C2(CCCCCC)CC2(Br)Br)cc1O` (configuration not stated), the results for the Ki in assay [1] and in assay [2] were 63 nM and 189 nM, respectively.
In the case of `C=C(C)C1CCC(C)=CC1c1c(O)cc(C2(CCCCCC)CC2(Cl)Cl)cc1O` (configuration not stated), the Ki in assay [1] amounted to 33 nM; in assay [2] it was 665 nM.
As for `CCCCCCC1(c2cc(O)c3c(c2)OC(C)(C)[C@@H]2CC=C(C)C[C@@H]32)CC1`, the Ki in assay [1] came out at 0.86 nM; in assay [2] it was 0.44 nM.
On to `C=C(C)C1CCC(C)=CC1c1c(O)cc(C2(CCCCCC)SCCS2)cc1O` (configuration not stated), for which the Ki in assay [1] is 50 nM; in assay [2], 136 nM.
On to `CCCCCCC(C)(C)c1cc(O)c2c(c1)OC(C)(C)[C@@H]1CC=C(C)C[C@@H]21`, for which the inhibitory constant (Ki) in assay [1] was 0.49 nM; in assay [2], 0.83 nM.
As for `C=C(C)[C@@H]1CCC(C)=C[C@H]1c1c(O)cc(CCCCC)cc1O` [CANNABIDIOL], the inhibition constant (Ki) in assay [1] came out at 230 nM.

Values taken from ChEMBL document CHEMBL1135957, “Novel 1',1'-chain substituted Delta(8)-tetrahydrocannabinols” (Bioorg Med Chem Lett, 2002).
